Values quoted from earlier work in PubChem BioAssay AID1259409 (Chemical Carcinogenesis Research Information System (CCRIS), 2018).

System: rodent chemically induced tumor inhibition, incidence and multiplicity
Experiment: CCRIS tumor inhibitor studies
Conditions: for tumour outcome (control, treated, inhibition, significance): Promoter: NONE USED

## S=C=NCc1ccccc1
Carcinogen: 7,12-DIMETHYLBENZ[A]ANTHRACENE, 57-97-6, Dose [Inhibitor]: 50 MG ONCE 4 HR BEFORE DMBA TREATMENT (STUDY DURATION: 18 WK), Route [Inhibitor]: INTRAGASTRIC, Species: RAT, Strain/Sex: SPRAGUE-DAWLEY/FEMALE, Target Tissue: Type of Lesion: MAMMARY GLAND: TUMOR, Dose [Carcinogen]: 12 MG IN 1 ML OLIVE OIL AT AGE 7 WK 4 HR BEFORE AGENT TREATMENT
  tumour outcome (control, treated, inhibition, significance): 100%, 14%, 86%, p<0.001
Carcinogen: 7,12-DIMETHYLBENZ[A]ANTHRACENE, 57-97-6, Dose [Inhibitor]: 50 MG ONCE 24 HR BEFORE DMBA TREATMENT (STUDY DURATION: 18 WK), Route [Inhibitor]: INTRAGASTRIC, Species: RAT, Strain/Sex: SPRAGUE-DAWLEY/FEMALE, Target Tissue: Type of Lesion: MAMMARY GLAND: TUMOR, Dose [Carcinogen]: 12 MG IN 1 ML OLIVE OIL AT AGE 7 WK 24 HR AFTER AGENT TREATMENT
  tumour outcome (control, treated, inhibition, significance): 93%, 71%, 24%, not significant
Carcinogen: BENZO[A]PYRENE, 50-32-8, Dose [Inhibitor]: 0, 5 UMOL IN ACETONE 4 HR PRIOR TO CARCINOGEN DOSE (STUDY DURATION: 20 WK), Route [Inhibitor]: DERMAL, Species: MOUSE, Strain/Sex: STRAIN-A/FEMALE, Target Tissue: Type of Lesion: SKIN: TUMOR, Dose [Carcinogen]: 0.1 UMOL IN ACETONE ONCE, Promoter: 12-O-TETRADECANOYLPHORBOL-13-ACETATE, 16561-29-8
  outcome: 70%, 60%, 14%, not significant at 15 wk; 95%, 75%, 21%, not significant at 20 wk
Carcinogen: BENZO[A]PYRENE, 50-32-8, Dose [Inhibitor]: 0, 6.7 UMOL IN COTTONSEED OIL 15 MIN PRIOR TO CARCINOGEN DOSES 1/2 WK FOR 3 TREATMENTS (STUDY DURATION: 26 WK), Route [Inhibitor]: GAVAGE, Species: MOUSE, Strain/Sex: STRAIN-A/FEMALE, Target Tissue: Type of Lesion: FORESTOMACH: TUMOR, Dose [Carcinogen]: 7.9 UMOL IN COTTONSEED OIL 1/2 WK FOR 3 TREATMENTS
  tumour outcome (control, treated, inhibition, significance): 95%, 95%, 0%, not significant
Carcinogen: BENZO[A]PYRENE, 50-32-8, Dose [Inhibitor]: 0, 6.7 UMOL IN COTTONSEED OIL 15 MIN PRIOR TO CARCINOGEN DOSES 1/2 WK FOR 3 TREATMENTS (STUDY DURATION: 26 WK), Route [Inhibitor]: GAVAGE, Species: MOUSE, Strain/Sex: STRAIN-A/FEMALE, Target Tissue: Type of Lesion: LUNG: TUMOR, Dose [Carcinogen]: 7.9 UMOL IN COTTONSEED OIL 1/2 WK FOR 3 TREATMENTS
  tumour outcome (control, treated, inhibition, significance): 95%, 80%, 16%, not significant
Carcinogen: BENZO[A]PYRENE, 50-32-8, Dose [Inhibitor]: 5 MG/G DIET AT AGE 9 WK SIMULTANEOUSLY WITH CARCINOGEN, 3/WK FOR 6 WK (STUDY DURATION: 20 WK), Route [Inhibitor]: ORAL, Species: MOUSE, Strain/Sex: ICR/FEMALE, Target Tissue: Type of Lesion: FORESTOMACH: TUMOR, Dose [Carcinogen]: 0.3 MG/G DIET AT AGE 9 WK, 3/WK FOR 6 WK
  tumour outcome (control, treated, inhibition, significance): 41%, 0%, 100%, p<0.01
Carcinogen: DIETHYLNITROSAMINE, 55-18-5, Dose [Inhibitor]: 0, 100 PPM IN DIET FOR DURATION OF STUDY BEGINNING 1 WK PRIOR TO CARCINOGEN DOSE (STUDY DURATION: 53 WK), Route [Inhibitor]: ORAL, Species: RAT, Strain/Sex: ACI/MALE, Target Tissue: Type of Lesion: LIVER: HEPATOCELLULAR ADENOMA, Dose [Carcinogen]: 200 MG/KG BW ONCE
  tumour outcome (control, treated, inhibition, significance): 10/18 (55%), 1/17 (6%), 89%, p<0.002
Carcinogen: DIETHYLNITROSAMINE, 55-18-5, Dose [Inhibitor]: 0, 100 PPM IN DIET FOR DURATION OF STUDY BEGINNING 1 WK PRIOR TO CARCINOGEN DOSE (STUDY DURATION: 53 WK), Route [Inhibitor]: ORAL, Species: RAT, Strain/Sex: ACI/MALE, Target Tissue: Type of Lesion: LIVER: HEPATOCELLULAR CARCINOMA, Dose [Carcinogen]: 200 MG/KG BW ONCE
  tumour outcome (control, treated, inhibition, significance): 6/18 (33%), 0/17 (0%), 100%, p<0.02
Carcinogen: METHYLAZOXYMETHANOL ACETATE, 592-62-1, Dose [Inhibitor]: 0, 400 PPM IN DIET FOR 4 WK BEGINNING 1 WK PRIOR TO CARCINOGEN TREATMENT (STUDY DURATION: 49 WK), Route [Inhibitor]: ORAL, Species: RAT, Strain/Sex: ACI/FEMALE, Target Tissue: Type of Lesion: COLON: ADENOMA OR CARCINOMA, Dose [Carcinogen]: 25 MG/KG BW 1/WK FOR 3 WK
  tumour outcome (control, treated, inhibition, significance): 15/18 (83%), 9/19 (47%), 43%, p<0.05
Carcinogen: METHYLAZOXYMETHANOL ACETATE, 592-62-1, Dose [Inhibitor]: 0, 400 PPM IN DIET FOR 46 WK BEGINNING 1 WK POST CARCINOGEN TREATMENT (STUDY DURATION: 49 WK), Route [Inhibitor]: ORAL, Species: RAT, Strain/Sex: ACI/FEMALE, Target Tissue: Type of Lesion: COLON: ADENOMA OR CARCINOMA, Dose [Carcinogen]: 25 MG/KG BW 1/WK FOR 3 WK
  tumour outcome (control, treated, inhibition, significance): 15/18 (83%), 17/19 (89%), -7%, not significant
Carcinogen: METHYLAZOXYMETHANOL ACETATE, 592-62-1, Dose [Inhibitor]: 0, 400 PPM IN DIET FOR 46 WK BEGINNING 1 WK POST CARCINOGEN TREATMENT (STUDY DURATION: 49 WK), Route [Inhibitor]: ORAL, Species: RAT, Strain/Sex: ACI/FEMALE, Target Tissue: Type of Lesion: SMALL INTESTINE: CARCINOMA, Dose [Carcinogen]: 25 MG/KG BW 1/WK FOR 3 WK
  tumour outcome (control, treated, inhibition, significance): 10/18 (56%), 10/19 (53%), 5%, not significant
Carcinogen: N-BUTYL-N-(4-HYDROXYBUTYL)NITROSAMINE (3817-11-6), Dose [Inhibitor]: 0, 10 PPM IN THE DIET FOR 40 WK (STUDY DURATION: 40 WK), Route [Inhibitor]: ORAL, Species: RAT, Strain/Sex: F344/MALE, Target Tissue: Type of Lesion: URINARY BLADDER: CARCINOMA, Dose [Carcinogen]: 50 PPM IN DRINKING WATER FOR 40 WK
  tumour outcome (control, treated, inhibition, significance): 19/20 (95%), 18/20 (90%), 5%, not significant
Carcinogen: N-BUTYL-N-(4-HYDROXYBUTYL)NITROSAMINE (3817-11-6), Dose [Inhibitor]: 0, 10 PPM IN THE DIET FOR 40 WK (STUDY DURATION: 40 WK), Route [Inhibitor]: ORAL, Species: RAT, Strain/Sex: F344/MALE, Target Tissue: Type of Lesion: URINARY BLADDER: PAPILLOMA, Dose [Carcinogen]: 50 PPM IN DRINKING WATER FOR 40 WK
  tumour outcome (control, treated, inhibition, significance): 15/20 (75%), 11/20 (55%), 27%, not significant
Carcinogen: N-BUTYL-N-(4-HYDROXYBUTYL)NITROSAMINE (3817-11-6), Dose [Inhibitor]: 0, 100 PPM IN THE DIET FOR 40 WK (STUDY DURATION: 40 WK), Route [Inhibitor]: ORAL, Species: RAT, Strain/Sex: F344/MALE, Target Tissue: Type of Lesion: URINARY BLADDER: CARCINOMA, Dose [Carcinogen]: 50 PPM IN DRINKING WATER FOR 40 WK
  tumour outcome (control, treated, inhibition, significance): 19/20 (95%), 15/20 (75%), 21%, not significant
Carcinogen: N-BUTYL-N-(4-HYDROXYBUTYL)NITROSAMINE (3817-11-6), Dose [Inhibitor]: 0, 100 PPM IN THE DIET FOR 40 WK (STUDY DURATION: 40 WK), Route [Inhibitor]: ORAL, Species: RAT, Strain/Sex: F344/MALE, Target Tissue: Type of Lesion: URINARY BLADDER: PAPILLOMA, Dose [Carcinogen]: 50 PPM IN DRINKING WATER FOR 40 WK
  tumour outcome (control, treated, inhibition, significance): 15/20 (75%), 9/20 (45%), 40%, p< 0.05
Carcinogen: N-BUTYL-N-(4-HYDROXYBUTYL)NITROSAMINE (3817-11-6), Dose [Inhibitor]: 0, 1000 PPM IN THE DIET FOR 40 WK (STUDY DURATION: 40 WK), Route [Inhibitor]: ORAL, Species: RAT, Strain/Sex: F344/MALE, Target Tissue: Type of Lesion: URINARY BLADDER: CARCINOMA, Dose [Carcinogen]: 50 PPM IN DRINKING WATER FOR 40 WK
  tumour outcome (control, treated, inhibition, significance): 19/20 (95%), 5/20 (25%), 74%, p< 0.01
Carcinogen: N-BUTYL-N-(4-HYDROXYBUTYL)NITROSAMINE (3817-11-6), Dose [Inhibitor]: 0, 1000 PPM IN THE DIET FOR 40 WK (STUDY DURATION: 40 WK), Route [Inhibitor]: ORAL, Species: RAT, Strain/Sex: F344/MALE, Target Tissue: Type of Lesion: URINARY BLADDER: PAPILLOMA, Dose [Carcinogen]: 50 PPM IN DRINKING WATER FOR 40 WK
  tumour outcome (control, treated, inhibition, significance): 15/20 (75%), 2/20 (10%), 87%, p< 0.01
Carcinogen: N-NITROSOMETHYLBENZYLAMINE, 937-40-6, Dose [Inhibitor]: 0, 0.4 UMOL/G IN DIET FOR 25 WK BEGINNING 2 WK PRIOR TO CARCINOGEN TREATMENT (STUDY DURATION: 25 WK), Route [Inhibitor]: ORAL, Species: RAT, Strain/Sex: F344/MALE, Target Tissue: Type of Lesion: ESOPHAGUS: TUMOR, Dose [Carcinogen]: 0.5 MG/KG BW IN 20% DMSO 1/WK FOR 15 WK
  tumour outcome (control, treated, inhibition, significance): 100%, 100%, 0%, not significant
Carcinogen: N-NITROSOMETHYLBENZYLAMINE, 937-40-6, Dose [Inhibitor]: 0, 1 UMOL/G IN DIET FOR 25 WK BEGINNING 2 WK PRIOR TO CARCINOGEN TREATMENT (STUDY DURATION: 25 WK), Route [Inhibitor]: ORAL, Species: RAT, Strain/Sex: F344/MALE, Target Tissue: Type of Lesion: ESOPHAGUS: TUMOR, Dose [Carcinogen]: 0.5 MG/KG BW IN 20% DMSO 1/WK FOR 15 WK
  tumour outcome (control, treated, inhibition, significance): 100%, 100%, 0%, not significant
Carcinogen: N-NITROSOMETHYLBENZYLAMINE, 937-40-6, Dose [Inhibitor]: 0, 2.5 UMOL/G IN DIET FOR 25 WK BEGINNING 2 WK PRIOR TO CARCINOGEN TREATMENT (STUDY DURATION: 25 WK), Route [Inhibitor]: ORAL, Species: RAT, Strain/Sex: F344/MALE, Target Tissue: Type of Lesion: ESOPHAGUS: TUMOR, Dose [Carcinogen]: 0.5 MG/KG BW IN 20% DMSO 1/WK FOR 15 WK
  tumour outcome (control, treated, inhibition, significance): 100%, 100%, 0%, not significant
